In brackets after ≈: the same amount, converted by molar mass. Activity calls are given as the source filed them. The rule behind the calls is not given here.
How the values were obtained:
Chlamydia trachomatis [1] = test: Antibacterial activity against Chlamydia trachomatis serovar L2 infected in HEp-2 cells assessed as bacterial growth inhibition at 25 to 0.39 ug/ml incubated for 16 hrs by IFA assay; format: functional, organism-based; settings: dose 25-0.39 µg/ml
Chlamydia trachomatis [2] = test: Antibacterial activity against Chlamydia trachomatis serovar L2 infected in HEp-2 cells assessed as bacterial growth inhibition incubated for 16 hrs by IFA assay; format: functional, organism-based; settings: serovar L2, HEp-2, 16 h
[3] = Cytotoxicity against HEp-2 cells assessed as cell viability at 256 ug/ml incubated for 20 hrs by XTT assay relative to control; format: toxicity, cell-based; settings: human, at 256 µg/mL, read-out: Activity
Chlamydia trachomatis [4] = test: Antibacterial activity against Chlamydia trachomatis L2 infected in HEp-2 cells assessed as inhibition of infectious progeny incubated for 24 hrs by fluorescence microscopy; format: functional, organism-based; settings: L2, HEp-2, 24 h
HEp-2 = test: Cytotoxicity against HEp-2 cells assessed as cell viability at 25 ug/ml incubated for 20 hrs by XTT assay relative to control; format: toxicity, cell-based; settings: human, hep-2, 20 h, at 25 µg/mL
[5] = Cytotoxicity against HEK293 cells assessed as cell survival at 256 ug/ml incubated for 20 hrs by XTT assay relative to control; format: toxicity, cell-based; settings: human, at 256 µg/mL, read-out: Survival
[6] = Cytotoxicity against HEC-1-A cells assessed as cell survival at 256 ug/ml incubated for 20 hrs by XTT assay relative to control; format: toxicity, cell-based; settings: human, at 256 µg/mL, read-out: Survival
Salmonella typhimurium [7] = test: Mutagenicity in Salmonella typhimurium TA98 assessed as number of revertants per plate at 2.5 ug pretreated for 90 mins measured after 66 hrs in presence of S9 fraction by AMES test (reference value: 24.33 +/- 9.50); format: functional, Salmonella enterica subsp. enterica serovar Typhimurium; settings: dose 2.5 µg; time 67.5 hrs
Salmonella typhimurium [8] = test: Mutagenicity in Salmonella typhimurium TA100 assessed as number of revertants per plate at 2.5 ug pretreated for 90 mins measured after 66 hrs in presence of S9 by AMES test (reference value: 201 +/- 9.90); format: functional, Salmonella enterica subsp. enterica serovar Typhimurium; settings: dose 2.5 µg; time 67.5 hrs
Chlamydia trachomatis [9] = test: Inhibition of recombinant Chlamydia trachomatis ClpX ATPase activity assessed as reduction in ATP consumption at 25 ug/ml incubated for 60 mins by Kinase Glo assay relative to control; settings: dose 25.0 µg/ml
[10] = Cytotoxicity against HEK293 cells assessed as cell viability at 25 ug/ml incubated for 20 hrs by XTT assay relative to control; format: toxicity, cell-based; settings: human, at 25 µg/mL, read-out: Activity
Blautia producta = test: Antimicrobial activity against Blautia producta DSM 2950 assessed as microbial growth inhibition incubated for 48 hrs; format: functional
[11] = system: Lacticaseibacillus rhamnosus; test: Antimicrobial activity against Lactobacillus rhamnosus CGMCC 1.3724 assessed as microbial growth inhibition incubated for 24 hrs by TTC staining based assay; format: functional
[12] = system: Lactiplantibacillus plantarum; test: Antimicrobial activity against Lactobacillus plantarum DSM 20174 assessed as microbial growth inhibition incubated for 24 hrs; format: functional
Anaerostipes caccae = test: Antimicrobial activity against Anaerostipes caccae […] assessed as microbial growth inhibition incubated for 48 hrs; format: functional
Pseudomonas aeruginosa = test: Antimicrobial activity against Pseudomonas aeruginosa PA01 assessed as microbial growth inhibition incubated for 24 hrs by TTC staining based assay; format: functional
[13] = system: Bacteroides thetaiotaomicron; test: Antimicrobial activity against Bacteroides thetaiotaomicron DSM 2079 assessed as microbial growth inhibition incubated for 48 hrs; format: functional
Staphylococcus aureus = test: Antimicrobial activity against Staphylococcus aureus USA 300 JE2 assessed as microbial growth inhibition incubated for 24 hrs by TTC staining based assay; format: functional
Escherichia coli [14] = test: Antimicrobial activity against Escherichia coli K12 assessed as microbial growth inhibition incubated for 24 hrs by TTC staining based assay; format: functional
Thomasclavelia ramosa = test: Antimicrobial activity against Clostridium ramosum DSM 1402 assessed as microbial growth inhibition incubated for 48 hrs; format: functional
Acinetobacter baumannii = test: Antimicrobial activity against Acinetobacter baumannii 2208 assessed as microbial growth inhibition incubated for 24 hrs by TTC staining based assay; format: functional
Escherichia coli [15] = test: Antimicrobial activity against non-pathogenic Escherichia coli ATCC MG1655 assessed as microbial growth inhibition incubated for 24 hrs by TTC staining based assay; format: functional

Q: With `O=C(O)c1ccc(C2Sc3ccccc3NC3=C2C(=O)c2ccccc23)cc1` (stereo not given) as the molecule, how does the inhibition (Chlamydia trachomatis [1]) read?
A: inactive

Q: Which IC50 (Chlamydia trachomatis [2]; read-out: IC50) does the source give for `COc1ccccc1C1Sc2ccc(C(F)(F)F)cc2NC2=C1C(=O)c1ccccc12` (stereo not given) here?
A: 2.46 µM

Q: What about the IC50 (Chlamydia trachomatis [2]; read-out: pIC50 (converted)) of the same molecule?
A: 2.51 µM

Q: What about the viability at 20 h, 256 ug/ml [3] of the same molecule?
A: 100%

Q: Which IC50 (Chlamydia trachomatis [2]; read-out: IC50) does the source give for `O=C1C2=C(Nc3ccccc3SC2c2cccc(C(F)(F)F)c2)c2ccccc21` (stereo not given) here?
A: 5.18 µg/mL

Q: With `COc1ccccc1C1Sc2ccccc2NC2=C1C(=O)c1ccccc12` (stereo not given) as the molecule, how does the IC50 (Chlamydia trachomatis [4]) read?
A: 6.41 µg/mL (≈ 17.3 µM)

Q: What about the IC50 (Chlamydia trachomatis [2]; read-out: IC50) of the same molecule?
A: 3.32 µg/mL

Q: What about the IC50 (Chlamydia trachomatis [2]; read-out: pIC50 (converted)) of the same molecule?
A: 8.91 µM

Q: What about the Activity (HEp-2) of the same molecule?
A: 73%

Q: And the viability at 20 h, 256 ug/ml [5]?
A: ≥ 75%

Q: What about the viability at 20 h, 256 ug/ml [6] of the same molecule?
A: ≥ 75%

Q: What about the viability at 20 h, 256 ug/ml [3] of the same molecule?
A: 50%

Q: Which results are given for `COc1ccc(C2Sc3ccc(C(F)(F)F)cc3NC3=C2C(=O)c2ccccc23)cc1` (stereo not given)?
A: IC50 (Chlamydia trachomatis [2]; read-out: IC50): 12.3 µg/mL; IC50 (Chlamydia trachomatis [2]; read-out: pIC50 (converted)): 28.2 µM

Q: With `O=C1C2=C(Nc3cc(C(F)(F)F)ccc3SC2c2cccs2)c2ccccc21` (stereo not given) as the molecule, how does the IC50 (Chlamydia trachomatis [2]; read-out: IC50) read?
A: 6.53 µg/mL

Q: With `N#Cc1cccc(C2Sc3ccccc3NC3=C2C(=O)c2ccccc23)c1` (stereo not given) as the molecule, how does the IC50 (Chlamydia trachomatis [2]; read-out: IC50) read?
A: 9 µg/mL

Q: Which IC50 (Chlamydia trachomatis [2]; read-out: IC50) does the source give for `O=C1C2=C(Nc3ccccc3SC2c2ccc(Cl)cc2Cl)c2ccccc21` (stereo not given) here?
A: 6.37 µg/mL

Q: And the IC50 (Chlamydia trachomatis [2]; read-out: pIC50 (converted))?
A: 15.5 µM

Q: With `COc1ccc(C2Sc3ccccc3N=C3C2=C(O)c2ccccc23)cc1` (stereo not given) as the molecule, how does the IC50 (Chlamydia trachomatis [2]; read-out: IC50) read?
A: 14.7 µg/mL

Q: Which inhibition (Chlamydia trachomatis [1]) does the source give for `O=C1C2=C(Nc3ccccc3SC2c2ccc(-c3ccccc3)cc2)c2ccccc21` (stereo not given) here?
A: inactive

Q: Which Activity (Salmonella typhimurium [7]) does the source give for `Nc1ccc2cc3ccccc3cc2c1` [2-AMINOANTHRACENE] here?
A: 137

Q: And the Activity (Salmonella typhimurium [8])?
A: 1256

Q: Which IC50 (Chlamydia trachomatis [2]; read-out: IC50) does the source give for `Cc1ccc(C2SCCNC3=C2C(=O)c2ccccc23)cc1` (stereo not given) here?
A: 21.4 µg/mL

Q: And the IC50 (Chlamydia trachomatis [2]; read-out: pIC50 (converted))?
A: 69.2 µM

Q: With `O=C1C2=C(Nc3ccccc3SC2c2ccc(OCc3ccccc3)cc2)c2ccccc21` (stereo not given) as the molecule, how does the IC50 (Chlamydia trachomatis [2]; read-out: IC50) read?
A: 22.8 µg/mL

Q: And the IC50 (Chlamydia trachomatis [2]; read-out: pIC50 (converted))?
A: 51.3 µM

Q: For `O=C1C2=C(NCCSC2c2ccc(Br)cc2)c2ccccc21` (stereo not given), which IC50 (Chlamydia trachomatis [2]; read-out: IC50) is on record?
A: 21.3 µg/mL

Q: With `Cc1cccc(C2Sc3ccccc3NC3=C2C(=O)c2ccccc23)c1F` (stereo not given) as the molecule, how does the inhibition (Chlamydia trachomatis [9]) read?
A: 20%

Q: And the IC50 (Chlamydia trachomatis [4])?
A: 7.13 µg/mL (≈ 19.1 µM)

Q: What about the viability at 20 h, 25 ug/ml [10] of the same molecule?
A: 78%

Q: What about the IC50 (Chlamydia trachomatis [2]; read-out: IC50) of the same molecule?
A: 4.69 µg/mL

Q: And the IC50 (Chlamydia trachomatis [2]; read-out: pIC50 (converted))?
A: 12.6 µM

Q: And the viability at 20 h, 256 ug/ml [5]?
A: ≥ 75%

Q: And the viability at 20 h, 256 ug/ml [6]?
A: ≥ 75%

Q: What about the viability at 20 h, 256 ug/ml [3] of the same molecule?
A: 50%

Q: Which results are given for `O=C1C2=C(Nc3ccccc3SC2c2cccc(O)c2)c2ccccc21` (stereo not given)?
A: IC50 (Chlamydia trachomatis [2]; read-out: IC50): 16.5 µg/mL; IC50 (Chlamydia trachomatis [2]; read-out: pIC50 (converted)): 45.7 µM

Q: Which results are given for `N#Cc1ccc(C2SCCNC3=C2C(=O)c2ccccc23)cc1` (stereo not given)?
A: inhibition (Chlamydia trachomatis [9]): 20%; inhibition (Chlamydia trachomatis [1]): inactive

Q: For `N#Cc1ccccc1C1Sc2ccc(C(F)(F)F)cc2NC2=C1C(=O)c1ccccc12` (stereo not given), which IC50 (Chlamydia trachomatis [2]; read-out: IC50) is on record?
A: 1.61 µM

Q: What about the IC50 (Chlamydia trachomatis [2]; read-out: pIC50 (converted)) of the same molecule?
A: 1.62 µM

Q: And the viability at 20 h, 256 ug/ml [3]?
A: 100%

Q: With `CC[C@H]1OC(=O)[C@H](C)[C@@H](O[C@H]2C[C@@](C)(OC)[C@@H](O)[C@H](C)O2)[C@H](C)[C@@H](O[C@@H]2O[C@H](C)C[C@H](N(C)C)[C@H]2O)[C@](C)(O)C[C@@H](C)CN(C)[C@H](C)[C@@H](O)[C@]1(C)O` [AZITHROMYCIN] as the molecule, how does the MIC (Blautia producta) read?
A: < 0.06 µg/mL

Q: What about the IC50 (Chlamydia trachomatis [4]) of the same molecule?
A: 0.06 µg/mL (≈ 0.0801 µM)

Q: What about the MIC [11] of the same molecule?
A: 1 µg/mL (≈ 1.34 µM)

Q: And the MIC [12]?
A: 2 µg/mL (≈ 2.67 µM)

Q: And the MIC (Anaerostipes caccae)?
A: > 125 µg/mL

Q: And the MIC (Pseudomonas aeruginosa)?
A: 125 µg/mL (≈ 167 µM)

Q: And the MIC [13]?
A: 0.5 µg/mL (≈ 0.668 µM)

Q: What about the MIC (Staphylococcus aureus) of the same molecule?
A: 2 µg/mL (≈ 2.67 µM)

Q: What about the MIC (Escherichia coli [14]) of the same molecule?
A: < 1 µg/mL

Q: What about the MIC (Thomasclavelia ramosa) of the same molecule?
A: < 0.06 µg/mL

Q: What about the MIC (Acinetobacter baumannii) of the same molecule?
A: < 1 µg/mL

Q: And the MIC (Escherichia coli [15])?
A: 2 µg/mL (≈ 2.67 µM)

Q: With `COc1cccc(C2C3=C(Nc4ccccc4S2(=O)=O)c2ccccc2C3=O)c1` (stereo not given) as the molecule, how does the IC50 (Chlamydia trachomatis [2]; read-out: IC50) read?
A: 10 µg/mL
